In patent US9850283B2, “Macrocyclic inhibitors of the PD-1/PD-L1 and CD80(B7-1)/PD-L1 protein/protein interactions” (BRISTOL-MYERS SQUIBB COMPANY, priority 2013, dated 2017):
Positions of bridges follow the written chain, without caps; N, C: chain ends. Non-standard residues stand in square brackets, D forms with d. Residues, ends and D or L forms follow the SMILES beside them. Hyp = O=C(O)[C@@H]1C[C@@H](O)CN1; NMeNle = CCCC[C@H](NC)C(=O)O; NMeA = CN[C@@H](C)C(=O)O; Dab = NCC[C@H](N)C(=O)O; Dap = NC[C@H](N)C(=O)O

Experiments:
Human PD-L1/PD-1 = biological target: T1, Human PD-L1/PD-1 (Homo sapiens, UniProt Q9NZQ7); experiment: HTRF PD-1-Ig/PD-L1-His binding assay (human PD-L1); conditions: cluster symbol; read-out: HTRF IC50 cluster
T1 construct: made in house; host or cells: HEK293T
Summary of the method: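 The time-resolved fluorescence signal comes from Eu-cryptate anti-Ig (1 nM) and APC anti-His (20 nM) antibodies bound to a PD-1-Ig/PD-L1-His complex. Both partners lack transmembrane regions.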

[1] = biological target: T2, LK35.2-hPD-L1 cells / PE-labeled PD-1-Ig (Homo sapiens, UniProt Q9NZQ7); experiment: LK35.2-hPD-L1 cell binding high-content screening assay; format: cell-based; conditions: cell binding assay, cell line not given; cluster symbol; read-out: CBA IC50 cluster
T2 construct: expressed in transfected cells; host or cells: LK35.2 mouse B cell line
Summary of the method: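 Readout: high-content imaging of PE-PD-1-Ig bound to LK35.2-hPD-L1 cells. Cells plated overnight (RPMI/10% FCS); compound + 1 nM PE-PD-1-Ig, 1 h, 37 °C; 3× dPBS wash before imaging.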

T2 sequence (Q9NZQ7 19-290): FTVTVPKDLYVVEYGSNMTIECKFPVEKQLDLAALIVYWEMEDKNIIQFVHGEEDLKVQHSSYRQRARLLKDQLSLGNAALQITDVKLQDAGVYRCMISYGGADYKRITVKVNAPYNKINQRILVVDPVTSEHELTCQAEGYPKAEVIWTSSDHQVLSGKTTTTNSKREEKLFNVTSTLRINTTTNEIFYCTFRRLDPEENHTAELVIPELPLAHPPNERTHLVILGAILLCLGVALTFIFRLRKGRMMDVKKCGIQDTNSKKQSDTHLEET
T1 sequence (Q9NZQ7 with tags, fused parts or gaps): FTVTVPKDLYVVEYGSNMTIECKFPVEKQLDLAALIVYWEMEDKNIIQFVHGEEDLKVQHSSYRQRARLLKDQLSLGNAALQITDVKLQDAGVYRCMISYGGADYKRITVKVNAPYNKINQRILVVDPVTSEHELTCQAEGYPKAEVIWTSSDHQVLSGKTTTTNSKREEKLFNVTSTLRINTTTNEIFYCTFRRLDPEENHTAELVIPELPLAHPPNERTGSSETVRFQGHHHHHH

Row | SMILES | IC50 (Human PD-L1/PD-1) | IC50 [1]
1 | CCCC[C@H]1C(=O)N(C)[C@@H](CCCC)C(=O)N[C@@H](CCCNC(=N)N)C(=O)N[C@H](C(=O)NCC(N)=O)CSCC(=O)N[C@@H](Cc2ccc(O)cc2)C(=O)N(C)[C@@H](C)C(=O)N[C@@H](CCN)C(=O)N2CCC[C@H]2C(=O)NCC(=O)N[C@@H](CCC(=O)O)C(=O)N2C[C@H](O)C[C@H]2C(=O)N[C@@H](Cc2c[nH]c3ccccc23)C(=O)N[C@@H](CO)C(=O)N[C@@H](Cc2c[nH]c3ccccc23)C(=O)N1C [Example 5129] ({CH2CO}-Y[NMeA][Dab]PGE[Hyp]WSW[NMeNle][NMeNle]RCG-NH2; thioether N-14) | 0.385 to 6.74 nM | 4.78 to 72.9 nM
2 | CCCC[C@H]1C(=O)N(C)[C@@H](CCCC)C(=O)N[C@@H](CCCNC(=N)N)C(=O)N[C@H](C(=O)NCC(N)=O)CSCC(=O)N[C@@H](Cc2ccc(O)cc2)C(=O)N(C)[C@@H](C)C(=O)N[C@@H](CCN)C(=O)N2CCC[C@H]2C(=O)N[C@@H](CO)C(=O)N[C@@H](CCC(=O)O)C(=O)N2C[C@H](O)C[C@H]2C(=O)N[C@@H](Cc2c[nH]c3ccccc23)C(=O)N[C@@H](CO)C(=O)N[C@@H](Cc2c[nH]c3ccccc23)C(=O)N1C [Example 5130] ({CH2CO}-Y[NMeA][Dab]PSE[Hyp]WSW[NMeNle][NMeNle]RCG-NH2; thioether N-14) | 6.76 to 30.3 nM | 0.158 to 4.71 nM
3 | CCCC[C@H]1C(=O)N(C)[C@@H](CCCC)C(=O)N[C@@H](CC(C)C)C(=O)N[C@H](C(=O)NCC(N)=O)CSCC(=O)N[C@@H](Cc2ccc(O)cc2)C(=O)N(C)[C@@H](C)C(=O)N[C@@H](CCN)C(=O)N2CCC[C@H]2C(=O)N[C@@H](Cc2c[nH]cn2)C(=O)N[C@@H](CCC(=O)O)C(=O)N2C[C@H](O)C[C@H]2C(=O)N[C@@H](Cc2c[nH]c3ccccc23)C(=O)N[C@@H](CO)C(=O)N[C@@H](Cc2c[nH]c3ccccc23)C(=O)N1C [Example 5133] ({CH2CO}-Y[NMeA][Dab]PHE[Hyp]WSW[NMeNle][NMeNle]LCG-NH2; thioether N-14) | 0.385 to 6.74 nM | 4.78 to 72.9 nM
4 | CCCC[C@H]1C(=O)N(C)[C@@H](CCCC)C(=O)N[C@@H](CCCNC(=N)N)C(=O)N[C@H](C(=O)NCC(N)=O)CSCC(=O)N[C@@H](Cc2ccc(O)cc2)C(=O)N(C)[C@@H](C)C(=O)N[C@@H](CN)C(=O)N2CCC[C@H]2C(=O)N[C@@H](Cc2c[nH]cn2)C(=O)N[C@@H](CC(=O)O)C(=O)N2C[C@H](O)C[C@H]2C(=O)N[C@@H](Cc2c[nH]c3ccccc23)C(=O)N[C@@H](CO)C(=O)N[C@@H](Cc2c[nH]c3ccccc23)C(=O)N1C [Example 5134] ({CH2CO}-Y[NMeA][Dap]PHD[Hyp]WSW[NMeNle][NMeNle]RCG-NH2; thioether N-14) | 0.385 to 6.74 nM | 4.78 to 72.9 nM

Next, values leading:

Row | IC50 (Human PD-L1/PD-1) | IC50 [1] | SMILES
5 | 0.385 to 6.74 nM | 0.158 to 4.71 nM | CCCC[C@H]1C(=O)N(C)[C@@H](CCCC)C(=O)N[C@@H](CCCNC(=N)N)C(=O)N[C@H](C(=O)NCC(N)=O)CSCC(=O)N[C@@H](Cc2ccc(O)cc2)C(=O)N(C)[C@@H](C)C(=O)N[C@@H](CCN)C(=O)N2CCC[C@H]2C(=O)N[C@@H](CN)C(=O)N[C@@H](CCC(=O)O)C(=O)N2C[C@H](O)C[C@H]2C(=O)N[C@@H](Cc2c[nH]c3ccccc23)C(=O)N[C@@H](CO)C(=O)N[C@@H](Cc2c[nH]c3ccccc23)C(=O)N1C [Example 5131] ({CH2CO}-Y[NMeA][Dab]P[Dap]E[Hyp]WSW[NMeNle][NMeNle]RCG-NH2; thioether N-14)
6 | 6.76 to 30.3 nM | 4.78 to 72.9 nM | CCCC[C@H]1C(=O)N(C)[C@@H](CCCC)C(=O)N[C@@H](CCCNC(=N)N)C(=O)N[C@H](C(=O)NCC(N)=O)CSCC(=O)N[C@@H](Cc2ccc(O)cc2)C(=O)N(C)[C@@H](C)C(=O)N[C@@H](CCN)C(=O)N2CCC[C@H]2C(=O)N[C@@H](Cc2c[nH]cn2)C(=O)N[C@@H](CC(=O)O)C(=O)N2C[C@H](O)C[C@H]2C(=O)N[C@@H](Cc2c[nH]c3ccccc23)C(=O)N[C@@H](CO)C(=O)N[C@@H](Cc2c[nH]c3ccccc23)C(=O)N1C [Example 5132] ({CH2CO}-Y[NMeA][Dab]PHD[Hyp]WSW[NMeNle][NMeNle]RCG-NH2; thioether N-14)
